From US12649750B2, “Macrocyclic compounds, compositions, and methods of using thereof” (Sionna Therapeutics Inc., priority 2022, dated 2026)

Key:
NBD1 = molecular target: T1, NBD1 (Homo sapiens, UniProt P13569); test: Aggregation analysis using differential static light scattering (DSLS), thermal stability of NBD1 (ΔTagg); format: binding; details: ΔTagg versus DMSO control, NBD1 0.2 mg/ml
T1 construct: Purified recombinant NBD1 was produced using previously described methods; made in house
Outline: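 Read-out is ΔTagg: the aggregation temperature, taken at the inflection of the light-scattering curve, less the average of DMSO control wells. Recombinant NBD1 (0.2 mg/ml, pH7.6 buffer containing 2 mM ATP) with test compound was heated at 1° C. per minute up to 70° C.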

CFTR = molecular target: T2, CFTR (Homo sapiens, UniProt P13569, DEL508-508); test: TECC24 AUC fold over DMSO @10 μM, CFTR-mediated transepithelial chloride transport in CF-HBE cells; format: cell-based; details: test agent AUC divided by DMSO vehicle AUC, primary CF-HBE cells, ΔF508 homozygous donor, 48 hours incubation
T2 construct: Primary human bronchial epithelial cells from a ΔF508 homozygous CF donor; host or cells: primary human bronchial epithelial cells (CF-HBE), ΔF508 homozygous donor
Outline: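 ΔF508-homozygous primary bronchial epithelial cells incubated 48 h at 36.5° C with compound (10 μM) in IL-13-containing medium, then TECC24 current-clamp recording in pH 7.4 Hepes saline with benzamil 10 μM, forskolin 10 μM, then CFTR inhibitor-172 20 μM. Equivalent Cl− current AUC between forskolin and inhibitor, expressed as fold over DMSO.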

T2 sequence (P13569 with tags, fused parts or gaps DEL508-508): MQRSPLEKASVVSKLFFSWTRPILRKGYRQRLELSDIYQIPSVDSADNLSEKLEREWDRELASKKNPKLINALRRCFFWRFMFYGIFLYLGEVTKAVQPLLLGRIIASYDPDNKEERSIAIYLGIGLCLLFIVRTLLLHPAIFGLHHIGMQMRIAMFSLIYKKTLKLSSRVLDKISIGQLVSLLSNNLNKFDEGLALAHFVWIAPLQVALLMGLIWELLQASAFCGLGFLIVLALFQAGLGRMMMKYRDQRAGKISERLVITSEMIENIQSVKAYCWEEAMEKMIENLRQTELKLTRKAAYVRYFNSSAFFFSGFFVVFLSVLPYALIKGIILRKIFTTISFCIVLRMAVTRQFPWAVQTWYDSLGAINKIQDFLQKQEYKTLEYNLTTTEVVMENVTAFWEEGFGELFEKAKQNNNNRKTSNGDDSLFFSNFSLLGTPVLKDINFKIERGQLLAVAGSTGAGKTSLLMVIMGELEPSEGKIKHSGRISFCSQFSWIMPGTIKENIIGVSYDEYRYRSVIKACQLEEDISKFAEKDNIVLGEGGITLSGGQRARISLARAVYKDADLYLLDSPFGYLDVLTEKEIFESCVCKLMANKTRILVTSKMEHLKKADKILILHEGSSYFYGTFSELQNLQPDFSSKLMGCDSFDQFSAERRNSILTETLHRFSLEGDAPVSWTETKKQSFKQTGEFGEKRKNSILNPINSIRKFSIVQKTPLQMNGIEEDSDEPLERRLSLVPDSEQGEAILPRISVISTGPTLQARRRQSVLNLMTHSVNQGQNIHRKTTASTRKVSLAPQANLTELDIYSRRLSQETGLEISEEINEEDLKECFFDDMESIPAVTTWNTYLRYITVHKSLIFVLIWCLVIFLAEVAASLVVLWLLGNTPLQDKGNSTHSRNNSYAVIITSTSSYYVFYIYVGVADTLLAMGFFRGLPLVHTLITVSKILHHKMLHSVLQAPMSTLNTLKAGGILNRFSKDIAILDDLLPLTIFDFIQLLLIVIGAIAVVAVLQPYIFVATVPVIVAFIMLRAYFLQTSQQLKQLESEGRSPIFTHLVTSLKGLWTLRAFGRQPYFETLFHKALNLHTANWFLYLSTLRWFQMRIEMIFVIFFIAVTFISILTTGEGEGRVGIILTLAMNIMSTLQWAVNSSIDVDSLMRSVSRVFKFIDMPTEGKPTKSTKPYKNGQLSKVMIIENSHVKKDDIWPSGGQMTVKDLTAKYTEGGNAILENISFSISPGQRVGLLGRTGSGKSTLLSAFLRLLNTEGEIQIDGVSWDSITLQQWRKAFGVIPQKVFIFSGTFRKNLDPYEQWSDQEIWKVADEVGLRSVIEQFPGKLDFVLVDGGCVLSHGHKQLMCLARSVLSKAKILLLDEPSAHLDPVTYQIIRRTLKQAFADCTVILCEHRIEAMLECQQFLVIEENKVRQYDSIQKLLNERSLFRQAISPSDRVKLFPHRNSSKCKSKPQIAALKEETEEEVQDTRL
T1 sequence (P13569 423-646 limits assumed): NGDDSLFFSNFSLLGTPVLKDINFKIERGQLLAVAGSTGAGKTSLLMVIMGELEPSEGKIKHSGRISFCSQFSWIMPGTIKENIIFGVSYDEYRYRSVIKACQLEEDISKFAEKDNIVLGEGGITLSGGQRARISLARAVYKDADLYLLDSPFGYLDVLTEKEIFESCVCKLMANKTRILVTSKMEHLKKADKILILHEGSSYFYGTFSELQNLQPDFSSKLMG

Structure (SMILES) | DSLS 3D (100 μM ΔT) (NBD1) | TECC (AUC, 10 μM) (CFTR)
CC(C)ONC(=O)[C@@H](C)Cc1cccc(C2(C)CCCC(C)(C)CS(=O)(=O)CCc3c(c(F)cc4[nH]ccc34)Oc3ccc(F)c(c3)-c3nc2nn3C)c1 (single isomer, unassigned) [Compound 189] | B (a value above 5 °C and less than or equal to 10 °C is marked “B”) | B (a value between 12-20 is marked “B”)
CC(Cc1cccc(C2(C)CCCC3(CC3)CS(=O)(=O)CCc3c(c(F)cc4[nH]ccc34)Oc3ccc(F)c(c3)-c3nc2nn3C)c1)C(=O)O (single isomer, unassigned) [Compound 13B, 3-[3-(22,28-difluoro-3,6-dimethyl-12,12-dioxo-spiro[24-oxa-12lambda6-thia-3,4,19,30-tetrazapentacyclo[23.3.1.12,5.015,23.016,20]triaconta-1(29),2(30),4,15,17,20,22,25,27-nonaene-10,1′-cyclopropane]-6-yl)phenyl]-2-methyl-propanic Acid] | A (an ΔTagg value less than or equal to 5 °C is marked “A”) | C (a value between 20 and 80 is marked “C”)
CC(Cc1cccc(C2(C3SCCS3)CCCC(C)(C)CS(=O)(=O)CCc3c(c(F)cc4[nH]ccc34)Oc3ccc(F)c(c3)-c3nc2nn3C)c1)C(=O)O (stereo not drawn) [Compound 115, 3-[3-[6-(1,3-Dithiolan-2-yl)-22,28-difluoro-3,10,10-trimethyl-12,12-dioxo-24-oxa-12λ6-thia-3,4,19,30-tetrazapentacyclo-[23.3.1.12,5.015,23.016,20]triaconta-1(29),2(30),4,15,17,20,22,25,27-nonaen-6-yl]phenyl]-2-methyl-propanoic Acid] | C (a value greater than 10 °C and less than or equal to 25 °C is marked “C”) | A (a TECC value less than 12 is marked “A”)
[2H]C([2H])([2H])C1(c2cccc(CC(C)C(=O)O)c2)COCC(C)(C)CS(=O)(=O)CCc2c(c(F)cc3[nH]ccc23)Oc2ccc(F)c(c2)-c2nc1nn2C (single isomer, unassigned) [Compound 8A, 3-[3-[22,28-difluoro-3,10,10-trimethyl-12,12-dioxo-6-(trideuteriomethyl)-8,24-dioxa-12lambda6-thia-3,4,19,30-tetrazapentacyclo[23.3.1.12,5.015,23.016,20]triaconta-1(29),2(30),4,15,17,20,22,25,27-nonaen-6-yl]phenyl]-2-methyl-propanoic acid] | C (a value greater than 10 °C and less than or equal to 25 °C is marked “C”) | B (a value between 12-20 is marked “B”)
C[C@@H](Cc1cccc([C@@]2(C)CCCC(C)(C)CS(=O)(=O)CCc3c(c(F)c(F)c4[nH]ccc34)[S+]([O-])c3ccc(F)c(c3)-c3nc2nn3C)c1)C(=O)O (single isomer, unassigned) [Compound 225A] | B (a value above 5 °C and less than or equal to 10 °C is marked “B”) | C (a value between 20 and 80 is marked “C”)
C[C@@H](Cc1cccc([C@@]2(C)CCCC(C)(C)CS(=O)(=O)CCc3c(c(F)cc4[nH]ccc34)[S+]([O-])c3ccnc(c3)-c3nc2nn3C)c1F)C(=O)O (stereo partly drawn) [Compound 283, (2S)-3-[2-fluoro-3-[(6R)-22-fluoro-3,6,10,10-tetramethyl-12,12,24-trioxo-12λ6,24λ4-dithia-3,4,19,28,30-pentazapentacyclo[23.3.1.12,5.015,23.016,20]triaconta-1(29),2(30),4,15,17,20,22,25,27-nonaen-6-yl]phenyl]-2-methyl-propanoic Acid] | C (a value greater than 10 °C and less than or equal to 25 °C is marked “C”) | C (a value between 20 and 80 is marked “C”)
C[C@@H](Cc1cccc([C@@]2(C)CCCC(C)(C)CS(=O)(=O)CCc3c(c(F)cc4[nH]ccc34)Oc3ccnc(c3)-c3nc2nn3C)c1)C(=O)O (mixture of isomers) [Compound 201, (2S)-3-[3-[(6R)-22-Fluoro-3,6,10,10-tetramethyl-12,12-dioxo-24-oxa-12λ6-thia-3,4,19,28,30-pentazapentacyclo[23.3.1.12,5.015,23.016,20]triaconta-1(29),2(30),4,15,17,20,22,25,27-nonaen-6-yl]phenyl]-2-methyl-propanoic Acid] | C (a value greater than 10 °C and less than or equal to 25 °C is marked “C”) | B (a value between 12-20 is marked “B”)
C[C@@H](Cc1cccc([C@@]2(C)CCCC(C)(C)CS(=O)(=O)CCc3c(c(F)cc4[nH]ccc34)[S+]([O-])c3ccc(F)c(c3)-c3nc2cs3)c1)C(=O)O (single isomer, unassigned) [Compound 241A] | A (an ΔTagg value less than or equal to 5 °C is marked “A”) | C (a value between 20 and 80 is marked “C”)
C[C@H](Cc1cccc(C2(C)CCCC(C)(C)CS(=O)(=O)CCc3c(c(F)cc4[nH]ccc34)Oc3ccc(F)c(c3)-c3nc2nn3C)c1)C(=O)O (single isomer, unassigned) [Compound 6B] | A (an ΔTagg value less than or equal to 5 °C is marked “A”) | C (a value between 20 and 80 is marked “C”)
C/C(=C\c1cccc(C2(C)CCCC(C)(C)CS(=O)(=O)CCc3c(c(F)cc4[nH]ccc34)Cc3ccc(F)c(c3)-c3nc2nn3C)c1)C(=O)O (single isomer, unassigned) [Compound 166B, (E)-3-[3-(22,28-difluoro-3,6,10,10-tetramethyl-12,12-dioxo-12λ6-thia-3,4,19,30-tetrazapentacyclo-[23.3.1.12,5.015,23.016,20]triaconta-1(29),2(30),4,15,17,20,22,25,27-nonaen-6-yl)phenyl]-2-methyl-prop-2-enoic Acid] | A (an ΔTagg value less than or equal to 5 °C is marked “A”) | A (a TECC value less than 12 is marked “A”)
Cn1nc2nc1-c1cc(ccc1F)[S+]([O-])c1c(F)cc3[nH]ccc3c1CCS(=O)(=O)CC(C)(C)CCC[C@]2(C)c1cccc(CCC(=O)O)c1 (single isomer, unassigned) [Compound 215A] | C (a value greater than 10 °C and less than or equal to 25 °C is marked “C”) | A (a TECC value less than 12 is marked “A”)
Cc1cn2nc1-c1cccc(c1)C(=O)c1c(F)cc3[nH]ccc3c1CCS(=O)(=O)CC(C)(C)CCCC2c1cccc(C[C@H](C)C(=O)O)c1 (stereo partly drawn) [Compound 170, (2S)-3-[3-(22-Fluoro-3,10,10-trimethyl-12,12,24-trioxo-12λ6-thia-5,19,30-triazapentacyclo[23.3.1.12,5.015,23.016,20]triaconta-1(29),2(30),3,15,17,20,22,25,27-nonaen-6-yl)phenyl]-2-methyl-propanoic Acid] | A (an ΔTagg value less than or equal to 5 °C is marked “A”) | A (a TECC value less than 12 is marked “A”)
CC1(C)COCCC(c2cccc(CCC(=O)O)c2)n2ccc(n2)-c2cc(ccc2F)Oc2c(F)cc3[nH]ccc3c2CS(=O)(=O)C1 (stereo not drawn) [Compound 59, 3-[3-(22,28-Difluoro-11,11-dimethyl-13,13-dioxo-9,24-dioxa-13λ6-thia-5,19,30-triazapentacyclo[23.3.1.12,5.015,23.016,20]triaconta-1(29),2(30),3,15,17,20,22,25,27-nonaen-6-yl)phenyl]propanoic Acid] | C (a value greater than 10 °C and less than or equal to 25 °C is marked “C”) | C (a value between 20 and 80 is marked “C”)
Cn1nc2nc1-c1cc(ccn1)Sc1c(F)c(F)c3[nH]ccc3c1CCS(=O)(=O)CC(C)(C)CCC[C@]2(C)c1cccc(C[C@@H](O)CO)c1 [Compound 282, (2R)-3-[3-[(6R)-21,22-difluoro-3,6,10,10-tetramethyl-12,12-dioxo-12λ6,24-dithia-3,4,19,28,30-pentazapentacyclo[23.3.1.12,5.015,23.016,20]triaconta-1(29),2(30),4,15,17,20,22,25,27-nonaen-6-yl]phenyl]propane-1,2-diol] | C (a value greater than 10 °C and less than or equal to 25 °C is marked “C”) | C (a value between 20 and 80 is marked “C”)
Cn1nc2nc1-c1cc(ccc1F)Oc1c(F)cc3[nH]ccc3c1CCS(=O)(=O)CC(C)(C)CCCC2(C)c1cccc(CC2CCOC2=O)c1 (stereo not drawn) [Compound 173, 3-[[3-(22,28-Difluoro-3,6,10,10-tetramethyl-12,12-dioxo-24-oxa-12λ6-thia-3,4,19,30-tetrazapentacyclo[23.3.1.12,5.015,23.016,20]triaconta-1(29),2(30),4,15,17,20,22,25,27-nonaen-6-yl)phenyl]methyl]tetrahydrofuran-2-one] | B (a value above 5 °C and less than or equal to 10 °C is marked “B”) | C (a value between 20 and 80 is marked “C”)
